Data reported in patent US10981932B2, “Macrocyclic indole derivatives” (Bayer Aktiengesellschaft, priority 2016, dated 2021).
Where “and” joins values, the source holds several entries; their conditions need not be identical. Identical values can stand only once. Counter-ions that a name gives are not always drawn. Like-named read-outs stand apart in the source and are kept apart here.

Key:
MCL-1 = MCL-1 (Homo sapiens, UniProt Q07820); experiment: Protein-protein interaction assay MCL-1/Noxa BH3 peptide (MCL-1 assay), TR-FRET; format: binding; conditions: MBP-MCL-1 / Noxa BH3-derived peptide, median
Outline: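 IC50 came from a 4-parameter fit of the normalized 665/620 nm TR-FRET ratio (anti-MBP Eu-cryptate/streptavidin-XL665). Compounds (0.1 nM–20 μM, duplicates) were preincubated 10 min at 22 °C with 1 nM MBP-MCL-1 in pH 7 Tris/NaCl/KF buffer, then read after 1 h at 22 °C plus overnight at 4 °C.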

SUDHL5 [1] = experiment: Induction of caspase-3/7 activity (Caspase-Glo 3/7), SUDHL5; format: cell-based; conditions: caspase-3/7 induction, SUDHL5 cells, 3 h treatment; median
Outline: (§1)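 DLBCL lines SUDHL5 and SUDHL10 treated with compounds for 3 h at 37 °C; caspase-3/7 activity read by Caspase-Glo 3/7 luminescence. Medium-only background subtracted; EC50 fitted with bottom fixed at 1 and top fixed at the reference compound's maximal induction.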

SUDHL10 [2] = experiment: Induction of caspase-3/7 activity (Caspase-Glo 3/7), SUDHL10; format: cell-based; conditions: caspase-3/7 induction, SUDHL10 cells, 3 h treatment; median
Outline: as §1

SUDHL5 [3] = experiment: Anti-proliferative effect (CellTiter-Glo, 72 h), SUDHL5; format: cell-based; conditions: SUDHL5 cells, antiproliferation, median, read-out: Antiproli SUDHL5 [M] (median)
Outline: (§2)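 Cells plated and incubated with compounds for 72 h at 37 °C, with a parallel day 0 reference plate for time-zero signal. Viability read by CellTiter-Glo luminescence after 10 min, measured identically on the day 0 and 72 h plates.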

A2780 = experiment: Anti-proliferative effect (CellTiter-Glo, 72 h), A2780; format: cell-based; conditions: A2780 cells, median, read-out: IC50 antiproliferation assay A2780 [M] (median)
Outline: as §2

MV-4-11 = experiment: Anti-proliferative effect (CellTiter-Glo, 72 h), MV-4-11; format: cell-based; conditions: MV-4-11 cells, median, read-out: IC50 antiproliferation assay MV-4-11 [M] (median)
Outline: as §2

SK-MEL-2 = experiment: Anti-proliferative effect (CellTiter-Glo, 72 h), SK-MEL-2; format: cell-based; conditions: Homo sapiens, SK-MEL-2 cells, median, read-out: IC50 antiproliferation assay SK-MEL-2 [M] (median)
Experimental: Assessment of the Anti-Proliferative Effect of Compounds in Different Cell Lines
(§3) The impact of compounds on the proliferation of different cell lines was assessed using the CellTiter-Glo® Luminescent Cell Viability reagent from Promega (G7573). Of note, SUDHL10 and SUDHL5 (DLBCL), NCI-H929 (Multiple Myeloma), A2780 (ovarian carcinoma) as well as MV-4-11(AML) cells are sensitive to MCL-1 inhibition.
(§4) In parallel, cells were plated in a reference (day 0) plate for time zero determination.
(§5) Rim wells were excluded. The cells were incubated for 72 h hours in a humidified incubator at 37° C. The day 0 plate was measured by adding 30 μl/well of CTG solution (CellTiter-Glo® Luminescent Cell Viability reagent, Promega G7573) to time zero wells in the reference plate followed by a 10 minutes incubation and luminescence reading at 0.1 ms, using the PHERAstar FS microplate reader (BMG Labtech).
(§6) After 72 h incubation, the treated plates were measured in the same way as the day 0 plate mentioned above.

NCI-H1703 = experiment: Anti-proliferative effect (CellTiter-Glo, 72 h), NCI-H1703; format: cell-based; conditions: Homo sapiens, NCI-H1703 cells, median, read-out: IC50 antiproliferation assay NCI-H1703 [M] (median)
Experimental: as §3, §4, §5, §6

SUDHL5 [4] = experiment: Induction of cytotoxicity (CellTiter-Glo, 5 h), SUDHL5; conditions: read-out: Cytotox SUDHL5 [M] (median), SUDHL5 cells, cytotoxicity induction, CellTiter-Glo, median
SUDHL10 [5] = experiment: Induction of cytotoxicity (CellTiter-Glo, 5 h), SUDHL10; conditions: read-out: Cytotox SUDHL10 [M] (median), SUDHL10 cells, cytotoxicity induction, CellTiter-Glo, median
SUDHL10 [6] = experiment: Anti-proliferative effect (CellTiter-Glo, 72 h), SUDHL10; format: cell-based; conditions: SUDHL10 cells, antiproliferation, 72 h incubation, median, read-out: Antiproli SUDHL10 [M] (median)
Outline: as §2

SUDHL5 [7] = test system: SUDHL5
SUDHL10 [8] = test system: SUDHL10
OPM2 = experiment: Anti-proliferative effect (CellTiter-Glo, 72 h), OPM2; format: cell-based; conditions: OPM2 cells, median, read-out: IC50 antiproliferation assay OPM2 [M] (median)
Outline: as §2

MCL-1, sequence (Q07820 whole entry): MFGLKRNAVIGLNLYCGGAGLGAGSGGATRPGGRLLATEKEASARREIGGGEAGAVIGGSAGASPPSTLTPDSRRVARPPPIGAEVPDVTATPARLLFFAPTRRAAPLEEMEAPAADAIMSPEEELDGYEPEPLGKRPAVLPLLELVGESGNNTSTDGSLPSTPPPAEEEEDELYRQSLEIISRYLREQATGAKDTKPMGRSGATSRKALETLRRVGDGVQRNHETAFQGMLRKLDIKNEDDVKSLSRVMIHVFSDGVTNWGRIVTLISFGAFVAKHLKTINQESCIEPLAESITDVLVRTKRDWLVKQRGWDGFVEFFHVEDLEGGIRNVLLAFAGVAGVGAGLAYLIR

CCc1nn(C)c2c1-c1c(C)ccc3c(CCCOc4cccc5cc(F)ccc45)c(C(=O)O)n(c13)CCCCOC2 (single isomer, unassigned) [Example 267, (+)-3-ethyl-7-{3-[(6-fluoronaphthalen-1-yl)oxy]propyl}-1,4-dimethyl-1,10,11,12,13,15-hexahydropyrazolo[4′,3′:9,10][1,6]oxazacycloundecino[8,7,6-hi]indole-8-carboxylic Acid]
IC50 (MCL-1): 0.00037 µM | EC50 (SUDHL5 [1]): 1.14 µM | EC50 (SUDHL10 [2]): 4.6 µM | IC50 (SUDHL5 [3]; 72 h incubation): 1.89e-06 M | IC50 (A2780; Homo sapiens, A2780, 72 h): 2.15e-05 M | IC50 (MV-4-11; Homo sapiens, MV4-11, 72 h): 7.02e-06 M | IC50 (SK-MEL-2): 2e-05 M | IC50 (NCI-H1703): 1.36e-05 M | IC50 (SUDHL5 [4]; 5 h incubation): 1.11e-06 M | IC50 (SUDHL10 [5]; 5 h incubation): 3.66e-06 M

Cc1c2c(nn1CC(F)(F)F)COCCCCn1c(C(=O)O)c(CCCOc3cccc4ccccc34)c3cccc-2c31 [Example 242, 3-methyl-7-[3-(naphthalen-1-yloxy)propyl]-2-(2,2,2-trifluoroethyl)-2,10,11,12,13,15-hexahydropyrazolo[4′,3′:9,10][1,6]oxazacycloundecino[8,7,6-hi]indole-8-carboxylic Acid]
IC50 (MCL-1): 0.258 µM | EC50 (SUDHL5 [1]): > 33 µM | EC50 (SUDHL10 [2]): > 33 µM | IC50 (SUDHL5 [3]; 72 h incubation): 1.52e-06 M | IC50 (SUDHL10 [6]): 2.74e-06 M | IC50 (A2780): 2.59e-06 M | IC50 (SUDHL5 [7]): > 33 µM | IC50 (SUDHL10 [8]): > 33 µM

CCc1nn(CCN2CCOCC2)c2c1-c1cccc3c(CCCOc4cccc5ccccc45)c(C(=O)O)n(c13)CCCCOC2 (single isomer, unassigned; enantiomer 1) [Example 199, 3-ethyl-1-[2-(morpholin-4-yl)ethyl]-7-[3-(naphthalen-1-yloxy)propyl]-1,10,11,12,13,15-hexahydropyrazolo[4′,3:9,10][1,6]oxazacycloundecino[8,76-hi]indole-8-carboxylic Acid (Enantiomer 1)]
IC50 (MCL-1): 0.00126 µM | EC50 (SUDHL5 [1]): 0.899 µM | EC50 (SUDHL10 [2]): 3.46 µM | IC50 (SUDHL5 [3]; 72 h incubation): 1.65e-06 M | IC50 (SUDHL10 [6]): 1.13e-06 M | IC50 (A2780; Homo sapiens, A2780, 72 h): 1.57e-05 M | IC50 (MV-4-11; Homo sapiens, MV4-11, 72 h): 7.51e-06 M | IC50 (SK-MEL-2): 2.9e-05 M | IC50 (NCI-H1703): 1.46e-05 M | IC50 (SUDHL5 [4]; 5 h incubation): 9.25e-07 M | IC50 (SUDHL10 [5]; 5 h incubation): 2.92e-06 M

Cn1nc(CN2CCOCC2)c2c1COCCCn1c(C(=O)O)c(CCCOc3cccc4ccccc34)c3cccc-2c31 (single isomer, unassigned; enantiomer 2) [Example 140, 9-methyl-11-(morpholin-4-ylmethy)-1-[3-(naphthalen-1-yloxy)propyl]-5,6,8,9-tetrahydro-4H-pyrazolo[4′,3′:8,9][1,5]oxazecino[7,6,5-hi]indole-2-carboxylic Acid (Enantiomer 2)]
IC50 (MCL-1): 0.0114 µM | EC50 (SUDHL5 [1]): 14.9 µM | EC50 (SUDHL10 [2]): 20.3 µM and > 33 µM | IC50 (SUDHL5 [3]; 72 h incubation): 1.17e-05 M | IC50 (SUDHL10 [6]): 1.79e-05 M | IC50 (OPM2): > 3.3e-05 M | IC50 (A2780): > 3.3e-05 M | IC50 (MV-4-11): 2.27e-05 M | IC50 (SUDHL5 [7]): 16.7 µM

CN1CCCn2c(C(=O)O)c(CCCOc3cccc4ccccc34)c3cccc(c32)-c2c(CCN3CCOCC3)nn(C)c2C1 (single isomer, unassigned; enantiomer 2) [Example 126, 7,9-dimethyl-11-[2-(morpholin-4-yl)ethyl]-1-[3-(naphthalen-1-yloxy)propyl]-4,5,6,7,8,9-hexahydropyrazolo[3′,4′:7,8][1,5]diazecino[9,10,1-hi]indole-2-carboxylic Acid (Enantiomer 2)]
IC50 (MCL-1): 0.0845 µM | EC50 (SUDHL5 [1]): 27.9 µM | EC50 (SUDHL10 [2]): > 33 µM | IC50 (SUDHL5 [3]; 72 h incubation): 1.68e-05 M | IC50 (SUDHL10 [6]): 1.51e-05 M | IC50 (OPM2): > 3.3e-05 M | IC50 (A2780): 3.19e-05 M | IC50 (SUDHL5 [7]): 27.3 µM | IC50 (SUDHL10 [8]): > 33 µM

Cn1nc(CN2CCOCC2)c2c1COCCCn1c(C(=O)O)c(CCCOc3cccc4ccccc34)c3cccc-2c31 (single isomer, unassigned; enantiomer 1) [Example 139, 9-methyl-11-(morpholin-4-ylmethyl)-1-[3-(naphthalen-1-yloxy)propyl]-5,6,8,9-tetrahydro-4H-pyrazolo[4′,3′:8,9][1,5]oxazecino[7,6,5-hi]indole-2-carboxylic Acid (Enantiomer 1)]
IC50 (MCL-1): 0.0422 µM | EC50 (SUDHL5 [1]): > 33 µM | EC50 (SUDHL10 [2]): > 33 µM | IC50 (SUDHL10 [6]): 2.67e-05 M | IC50 (OPM2): > 3.3e-05 M | IC50 (A2780): > 3.3e-05 M | IC50 (SUDHL5 [7]): > 33 µM | IC50 (SUDHL10 [8]): > 33 µM

CCc1c2c(nn1C)COCCCCn1c(C(=O)O)c(CCCOc3cccc4cc(F)ccc34)c3cccc-2c31 (single isomer, unassigned) [Example 282, (+)-3-ethyl-7-{3-[(6-fluoronaphthalen-1-yl)oxy]propyl}-2-methyl-2,10,11,12,13,15-hexahydropyrazolo[4′,3′:9,10][1,6]oxazacycloundecino[8,7,6-hi]indole-8-carboxylic acid-N-ethylethanamine Salt]
IC50 (MCL-1): 0.00109 µM | EC50 (SUDHL5 [1]): 0.385 µM | EC50 (SUDHL10 [2]): 0.906 µM | IC50 (SUDHL5 [3]; 72 h incubation): 5.78e-07 M | IC50 (A2780; Homo sapiens, A2780, 72 h): 8.66e-06 M | IC50 (MV-4-11): 3.69e-06 M | IC50 (SK-MEL-2): 1.25e-05 M | IC50 (NCI-H1703): 4.85e-06 M | IC50 (SUDHL5 [4]; 5 h incubation): 6.16e-07 M | IC50 (SUDHL10 [5]; 5 h incubation): 7.8e-07 M

CCc1nn(C)c2c1-c1cccc3c(CCCOc4cccc5cc(F)ccc45)c(C(=O)O)n(c13)CCCCOC2 (single isomer, unassigned) [Example 288, (+)-3-ethyl-7-{3-[(6-fluoronaphthalen-1-yl)oxy]propyl}-1-methyl-1,10,11,12,13,15-hexahydropyrazolo[4′,3′:9,10][1,6]oxazacycloundecino[8,7,6-hi]indole-8-carboxylic Acid]
IC50 (MCL-1): 0.00149 µM | EC50 (SUDHL5 [1]): 1.57 µM | EC50 (SUDHL10 [2]): 5.85 µM | IC50 (SUDHL5 [3]; 72 h): 1.54e-06 M | IC50 (A2780; Homo sapiens, A2780, 72 h): > 3.3e-05 M | IC50 (MV-4-11; Homo sapiens, MV4-11, 72 h): 9.86e-06 M | IC50 (SK-MEL-2): > 3.3e-05 M | IC50 (NCI-H1703): 1.76e-05 M | IC50 (SUDHL5 [4]; 5 h): 1.68e-06 M | IC50 (SUDHL10 [5]; 5 h): 6.54e-06 M

Cn1nc(CN2CCOCC2)c2c1COCCCCn1c(C(=O)O)c(CCCOc3cccc4ccccc34)c3cccc-2c31 (single isomer, unassigned; enantiomer 1) [Example 136, 1-methyl-3-(morpholin-4-ylmethyl)-7-[3-(naphthalen-1-yloxy)propyl]-1,10,11,12,13,15-hexahydropyrazolo[4′,3′:9,10][1,6]oxazacycloundecino[8,7,6-hi]indole-8-carboxylic Acid (Enantiomer 1)]
IC50 (MCL-1): 0.0228 µM | EC50 (SUDHL5 [1]): > 33 µM | EC50 (SUDHL10 [2]): > 33 µM | IC50 (SUDHL10 [6]): 8.9e-06 M | IC50 (OPM2): > 3.3e-05 M | IC50 (A2780): > 3.3e-05 M | IC50 (SUDHL5 [7]): > 33 µM | IC50 (SUDHL10 [8]): > 33 µM

Cc1c2c(nn1CCN1CCOCC1)COCCCCn1c(C(=O)O)c(CCCOc3cccc4cc(F)ccc34)c3cccc-2c31 (single isomer, unassigned) [Example 285, (+)-7-{3-[(6-fluoronaphthalen-1-yl)oxy]propyl}-3-methyl-2-[2-(morpholin-4-yl)ethyl]-2,10,11,12,13,15-hexahydropyrazolo[4′,3′:9,10][1,6]oxazacycloundecino[8,7,6-hi]indole-8-carboxylic acid-N-ethylethanamine Salt]
IC50 (MCL-1): 0.000782 µM | EC50 (SUDHL5 [1]): 0.646 µM | EC50 (SUDHL10 [2]): 1.41 µM | IC50 (SUDHL5 [3]; 72 h incubation): 9.39e-07 M | IC50 (A2780; Homo sapiens, A2780, 72 h): 1.22e-05 M | IC50 (MV-4-11): 3.61e-06 M | IC50 (SK-MEL-2): 1.09e-05 M | IC50 (NCI-H1703): 6.98e-06 M | IC50 (SUDHL5 [4]; 5 h incubation): 7.5e-07 M | IC50 (SUDHL10 [5]; 5 h incubation): 2.81e-06 M
